Source: PubChem BioAssay (NCI)
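Method: 48-hour compound exposure of cells in 96-well plates, five concentrations, linear interpolation of endpoints. At the TGI there is no net growth.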

Columns and labels:
Test in all cases: NCI-60 cell line screen, 48 h
HT29 colon = system: HT29 colon
DLD-1 colon = system: DLD-1 colon
HCT-15 colon = system: HCT-15 colon
ACHN renal = system: ACHN renal
COLO 205 colon = system: COLO 205 colon
786-0 renal = system: 786-0 renal
UO-31 renal = system: UO-31 renal
SN12C renal = system: SN12C renal
SF-268 CNS = system: SF-268 CNS
SK-OV-3 ovarian = system: SK-OV-3 ovarian
LOX IMVI melanoma = system: LOX IMVI melanoma
MOLT-4 leukemia = system: MOLT-4 leukemia
A549 NSCLC = system: A549 NSCLC
M14 melanoma = system: M14 melanoma
A498 renal = system: A498 renal
K-562 leukemia = system: K-562 leukemia
RXF 393 renal = system: RXF 393 renal
LXFL 529 NSCLC = system: LXFL 529 NSCLC
OVCAR-5 ovarian = system: OVCAR-5 ovarian
XF 498 CNS = system: XF 498 CNS
NCI-H23 lung = system: NCI-H23 lung
M19-MEL melanoma = system: M19-MEL melanoma
CCRF-CEM leukemia = system: CCRF-CEM leukemia
NCI-H460 lung = system: NCI-H460 lung
SNB-75 CNS = system: SNB-75 CNS
SK-MEL-5 melanoma = system: SK-MEL-5 melanoma
KM12 colon = system: KM12 colon
OVCAR-4 ovarian = system: OVCAR-4 ovarian
RPMI-8226 leukemia = system: RPMI-8226 leukemia
SW-620 colon = system: SW-620 colon
DMS 114 small cell lung = system: DMS 114 small cell lung
SF-295 CNS = system: SF-295 CNS
SR leukemia = system: SR leukemia
U251 CNS = system: U251 CNS
EKVX NSCLC = system: EKVX NSCLC
MALME-3M melanoma = system: MALME-3M melanoma
OVCAR-3 ovarian = system: OVCAR-3 ovarian
SK-MEL-28 melanoma = system: SK-MEL-28 melanoma
HOP-18 NSCLC = system: HOP-18 NSCLC
OVCAR-8 ovarian = system: OVCAR-8 ovarian
HCC-2998 colon = system: HCC-2998 colon
SNB-78 CNS = system: SNB-78 CNS
IGROV1 ovarian = system: IGROV1 ovarian
RXF-631 renal = system: RXF-631 renal
TK-10 renal = system: TK-10 renal
SNB-19 CNS = system: SNB-19 CNS
UACC-62 melanoma = system: UACC-62 melanoma
HL-60(TB) leukemia = system: HL-60(TB) leukemia
NCI-H226 lung = system: NCI-H226 lung
SF-539 CNS = system: SF-539 CNS
HOP-92 NSCLC = system: HOP-92 NSCLC
CAKI-1 renal = system: CAKI-1 renal
NCI-H522 lung = system: NCI-H522 lung
UACC-257 melanoma = system: UACC-257 melanoma
HCT-116 colon = system: HCT-116 colon
DMS 273 small cell lung = system: DMS 273 small cell lung

**Q.** What does the source list for `CCC1CC2C(=O)N(c3ccccc3)C(=O)C2c2[nH]c3ccccc3c21` (centres undefined)?
**A.** TGI (HT29 colon): > 100 µM; TGI (DLD-1 colon): > 100 µM; TGI (HCT-15 colon): > 100 µM; TGI (ACHN renal): > 100 µM; TGI (COLO 205 colon): 78.5 µM; TGI (786-0 renal): 47.6 µM; TGI (UO-31 renal): > 100 µM; TGI (SN12C renal): 71.1 µM; TGI (SF-268 CNS): 80 µM; TGI (SK-OV-3 ovarian): 29.3 µM; TGI (LOX IMVI melanoma): 47.8 µM; TGI (MOLT-4 leukemia): > 100 µM; TGI (A549 NSCLC): > 100 µM; TGI (M14 melanoma): > 100 µM; TGI (A498 renal): 67.7 µM; TGI (K-562 leukemia): > 100 µM; TGI (RXF 393 renal): 59.6 µM; TGI (LXFL 529 NSCLC): 70.4 µM; TGI (OVCAR-5 ovarian): > 100 µM; TGI (XF 498 CNS): 42 µM; TGI (NCI-H23 lung): > 100 µM; TGI (M19-MEL melanoma): 79.9 µM; TGI (CCRF-CEM leukemia): > 100 µM; TGI (NCI-H460 lung): 64.6 µM; TGI (SNB-75 CNS): 13 µM; TGI (SK-MEL-5 melanoma): > 100 µM; TGI (KM12 colon): > 100 µM; TGI (OVCAR-4 ovarian): 25.6 µM; TGI (RPMI-8226 leukemia): > 100 µM; TGI (SW-620 colon): > 100 µM; TGI (DMS 114 small cell lung): 35.7 µM; TGI (SF-295 CNS): 29.8 µM; TGI (SR leukemia): > 100 µM; TGI (U251 CNS): > 100 µM; TGI (EKVX NSCLC): 95.3 µM; TGI (MALME-3M melanoma): 38.7 µM; TGI (OVCAR-3 ovarian): 44.9 µM; TGI (SK-MEL-28 melanoma): > 100 µM; TGI (HOP-18 NSCLC): 45.8 µM; TGI (OVCAR-8 ovarian): 35.2 µM; TGI (HCC-2998 colon): > 100 µM; TGI (SNB-78 CNS): 75.1 µM; TGI (IGROV1 ovarian): 30.6 µM; TGI (RXF-631 renal): 29.4 µM; TGI (TK-10 renal): 68.3 µM; TGI (SNB-19 CNS): 75.1 µM; TGI (UACC-62 melanoma): > 100 µM; TGI (HL-60(TB) leukemia): 98 µM; TGI (NCI-H226 lung): 33.8 µM

**Q.** For `CC1=C[C@H]2c3c([nH]c4ccccc34)C(c3c[nH]c4ccccc34)[C@H]2CC1` (some centres undefined), which TGI (SF-539 CNS) is on record?
**A.** 25.6 µM

**Q.** What about the TGI (HT29 colon) of the same compound?
**A.** 11.5 µM

**Q.** What about the TGI (HOP-92 NSCLC) of the same compound?
**A.** 5.34 µM

**Q.** And the TGI (DLD-1 colon)?
**A.** 19.1 µM

**Q.** And the TGI (HCT-15 colon)?
**A.** 18.8 µM

**Q.** And the TGI (CAKI-1 renal)?
**A.** 26.3 µM

**Q.** What about the TGI (ACHN renal) of the same compound?
**A.** 25 µM

**Q.** And the TGI (COLO 205 colon)?
**A.** 13 µM

**Q.** And the TGI (786-0 renal)?
**A.** 11.2 µM

**Q.** And the TGI (SN12C renal)?
**A.** 12.9 µM

**Q.** What about the TGI (SK-OV-3 ovarian) of the same compound?
**A.** 26.6 µM

**Q.** And the TGI (LOX IMVI melanoma)?
**A.** 5.83 µM

**Q.** What about the TGI (NCI-H522 lung) of the same compound?
**A.** 18.5 µM

**Q.** What about the TGI (MOLT-4 leukemia) of the same compound?
**A.** 5.89 µM

**Q.** What about the TGI (A549 NSCLC) of the same compound?
**A.** 26.4 µM

**Q.** And the TGI (M14 melanoma)?
**A.** 19.2 µM

**Q.** What about the TGI (A498 renal) of the same compound?
**A.** 35.8 µM

**Q.** And the TGI (K-562 leukemia)?
**A.** 12.7 µM

**Q.** What about the TGI (RXF 393 renal) of the same compound?
**A.** 4.19 µM

**Q.** What about the TGI (LXFL 529 NSCLC) of the same compound?
**A.** 15.5 µM

**Q.** And the TGI (M19-MEL melanoma)?
**A.** 22.9 µM

**Q.** What about the TGI (CCRF-CEM leukemia) of the same compound?
**A.** 10.9 µM

**Q.** What about the TGI (NCI-H460 lung) of the same compound?
**A.** 8.21 µM

**Q.** What about the TGI (SNB-75 CNS) of the same compound?
**A.** 19 µM

**Q.** What about the TGI (UACC-257 melanoma) of the same compound?
**A.** 27.9 µM

**Q.** And the TGI (SK-MEL-5 melanoma)?
**A.** 28 µM

**Q.** And the TGI (HCT-116 colon)?
**A.** 11.9 µM

**Q.** And the TGI (RPMI-8226 leukemia)?
**A.** 12 µM

**Q.** What about the TGI (SW-620 colon) of the same compound?
**A.** 24.1 µM

**Q.** What about the TGI (DMS 114 small cell lung) of the same compound?
**A.** 20.5 µM

**Q.** And the TGI (U251 CNS)?
**A.** 16.3 µM

**Q.** And the TGI (EKVX NSCLC)?
**A.** 29.7 µM

**Q.** What about the TGI (MALME-3M melanoma) of the same compound?
**A.** 35.1 µM

**Q.** What about the TGI (SK-MEL-28 melanoma) of the same compound?
**A.** 26 µM

**Q.** What about the TGI (HOP-18 NSCLC) of the same compound?
**A.** 24.1 µM

**Q.** And the TGI (OVCAR-8 ovarian)?
**A.** 28 µM

**Q.** And the TGI (HCC-2998 colon)?
**A.** 12.4 µM

**Q.** And the TGI (SNB-78 CNS)?
**A.** 13.2 µM

**Q.** What about the TGI (IGROV1 ovarian) of the same compound?
**A.** 22.4 µM

**Q.** And the TGI (RXF-631 renal)?
**A.** 14.1 µM

**Q.** And the TGI (TK-10 renal)?
**A.** 28.5 µM

**Q.** And the TGI (UACC-62 melanoma)?
**A.** 23.1 µM

**Q.** What about the TGI (HL-60(TB) leukemia) of the same compound?
**A.** 17.6 µM

**Q.** And the TGI (NCI-H226 lung)?
**A.** 27.7 µM

**Q.** And the TGI (DMS 273 small cell lung)?
**A.** 15.8 µM
